Reference: ChEMBL document CHEMBL1151019, “Kinetics of thermal [1,7a]-sigmatropic shift of hexafluoro vitamin D3 and vitamin D3 derivatives. Evaluation of conformations of the A ring affected by 1-OH and 3-OH groups” (Bioorg Med Chem Lett, 1996)

Experiment: Kinetic constant for the transformation of vitamin D to Previtamin D (kl / k-1)

C=C1CCCC/C1=C/C=C1\CCC[C@]2(C)C([C@H](C)CCCC(C)C)CC[C@@H]12 (stereo not given in full)
Keq: 3.06

C=C1/C(=C\C=C2/CCC[C@]3(C)C([C@H](C)C[C@H](O)CC(O)(C(F)(F)F)C(F)(F)F)CC[C@@H]23)C[C@@H](O)C[C@@H]1O (stereo not given in full)
Keq: 5.46

C=C1CC[C@H](O)C/C1=C/C=C1\CCC[C@]2(C)[C@@H]([C@H](C)CCCC(C)C)CC[C@@H]12
Keq: 3.71

C=C1/C(=C\C=C2/CCC[C@]3(C)[C@@H]([C@H](C)CCCC(C)C)CC[C@@H]23)C[C@@H](O)C[C@@H]1O
Keq: 5.18

C=C1/C(=C\C=C2/CCC[C@]3(C)C([C@H](C)CCCC(O)(C(F)(F)F)C(F)(F)F)CC[C@@H]23)C[C@@H](O)C[C@@H]1O (stereo not given in full)
Keq: 5.1
